Results taken from patent US20040171089A1, “High-throughput screening assay for identifying substances capable of modulating cell survival and/or proliferation” (priority 2001, published 2004).

How the values were obtained:
[1] = tested on: human primary microvascular endothelial cells; assay: Fura-2 calcium imaging, microvascular endothelial cells; format: cell-based
Protocol: Human adult dermal microvascular endothelial cells (catalogue number CC-2543; cells had been characterised by tests for cell type markers: positive for acetylated LDL uptake, positive for factor VIII related antigen, negative for alpha smooth muscle actin)
(§1) For calcium imaging experiments cells were plated onto poly-L-lysine coated coverslips (13 mm). Single cell imaging was performed utilizing a MiraCal Imaging facility (Life Science Resources, Cambridge, U.K.) with a Nikon Diaphot-TMD inverted epifluorescence microscope equipped with a ×40 oil immersion objective and Sutter filter wheel. The imager was equipped with a Lambert intensifier 1187 (Life Sciences Resources) providing a ×30 enhancement of the fluorescent signal, thus limiting phototoxicity.
(§2) Fura-2 acetoxymethyl ester (fura-2 AM) incubations with the cells were performed at 37° C. in a medium containing (in mM): 120 NaCl, 3.5 KCl, 0.4 KH2PO4, 5 NaHCO3, 1.2 Na2SO4, 15 glucose, 1.2 MgCl2, 1 CaCl2, and 20 TES [N-tris(hydroxymethyl) methyl-2-aminoethane sulphonic acid] pH adjusted to 7.4 with NaOH. Typically cells were incubated in 3 μM fura-2 AM for 25 min., which permitted sufficient accumulation of free fura-2 in the cell cytoplasm. Cells were then illuminated alternately at 340 and 380 nm with the emitted 505 nm light being detected by a photomultiplier. Free fura emits maximally when excited at 380 nm, whilst the calcium bound fura has a maximal emission when excited at 340 nm. Thus the ratio of emission when alternately excited at 340/380 nm is a measure of the calcium concentration in equilibrium with the chelator. Changes of intracellular calcium were quantified as the percentage increase of the fluorescent ratio (determined at ˜505 nm) obtained by exciting the test cells alternatively at 340 nm (optimal for calcium bound dye) and 380 nm.

[2] = tested on: human prostate epithelial cells; assay: Fura-2 calcium imaging, prostate epithelial cells; format: cell-based
Protocol: Human prostate epithelial cells (catalogue number CC-2555; stain positive for cytokeratin 8,13.)
as §1
as §2, with “Free fura emits maximally when excited at 380 nm, whilst the calcium bound fura has a maximal emission when excited at 340 nm. Thus the ratio of emission when alternately excited at 340/380 nm is a measure of the calcium concentration in equilibrium with the chelator.” left out

[3] = tested on: phospholipase C; assay: GFP-PH PLCdelta 1 relocalisation (PLC activation) in MDA MB 468 cells; format: cell-based, human
Source text: The inventors introduced a recombinant plasmid vector encoding a hybrid protein comprised of the pleckstrin homology (PH) domain of phospholipase C (PLC) delta 1 fused green fluorescent protein (GFP) (GFP-PH PLCdelta 1) into MDA MB 468 mammary carcinoma cells. A standard transfection method (Fugene-6—Roche) was used. […] Cells were maintained in DMEM with 10% fetal bovine serum at 37 deg C. in 5% CO2 before and during exposure to sigma ligands which were present at a range of concentrations. Effects on the GFP-PH PLCdelta 1 protein were studied in two ways: by time lapse microscopy (using a Leica inverted fluorescence microscope and a Hammamatsu Orca charge-coupled device camera, linked to an Improvision Open Lab image processing workstation). This enabled the time course of effects to be determined. […] Control cell populations received drug vehicle alone and were analysed at the same time points.
GFP-PH PLC delta 1—expressing MDA MB 468 cells were exposed to sigma antagonists in 1 mM and 0 mM (nominally calcium-free) buffer (as used for the calcium imaging experiments, described above) and monitored by time lapse imaging as above.

[4] = molecular target: sigma-1 sites (Homo sapiens, UniProt Q99720); conditions: Whittemore et al 1997; read-out: inhibition constant for sigma-1 sites; cited from earlier work
sigma-1 sites, sequence (Q99720 whole entry): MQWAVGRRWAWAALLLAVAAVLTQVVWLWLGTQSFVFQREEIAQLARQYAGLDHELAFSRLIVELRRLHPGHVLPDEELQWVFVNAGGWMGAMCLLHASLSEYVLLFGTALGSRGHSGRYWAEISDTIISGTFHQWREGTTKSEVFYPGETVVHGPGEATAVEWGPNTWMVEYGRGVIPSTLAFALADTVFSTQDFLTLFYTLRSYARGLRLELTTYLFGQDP

[5] = tested on: MDA MB 468 cells; assay: MTS cell viability/proliferation assay, MDA MB 468 cells; format: cell-based, human; conditions: 15 minute exposure then drug-free medium; at 48 hours; MTS
Protocol: (§3) This was carried out using an MTS assay (reagents from Promega Corporation, Madison Wis., USA) which is a modification of the MTT assay (as described in Jacobson et al, 1994 EMBO J Vol 13 pp1899-1910). The assay depends on conversion of the MTS tetrazolium compound to a coloured formazan product in metabolically active cells; it is therefore an assay of viable cell number. A decline in values implies cell killing as long as cell disappearance by apoptosis in untreated cell populations is absent or negligible (as with most healthy primary cell populations).
(§4) Cells were seeded in the range 1.5×10^5-1.8×10^5 cells per ml of culture medium in 96 well microtitre plates and allowed to attach in a humidifed atmosphere of 5% CO2 in air at 37 deg C. Drugs were added 18-24 hours later and cell viability/proliferation measured at time intervals up to 48-72 hours post-drug addition when the experiment was terminated. Mean (±SE) values at each time point were obtained from wells in triplicate.
(§5) Cell viability was measured as follows: 20 μl of MTS solution (Promega) was added to wells and incubated at 37 deg C. for 3 hours during which time a coloured formazan product is generated in viable cells. […] Viable cell number was then measured by reading absorbance at 490 nm in a Dynex microtitre plate reader. […]

[6] = tested on: mammary epithelial cells; assay: MTS cell viability/proliferation assay, mammary epithelial cells; format: cell-based, human; conditions: 1-10 μM
Protocol: Human mammary epithelial cells (catalogue number CC-2551; stain positive for cytokeratins 14, 18 and 19)
as §3
as §4, with “Mean (±SE) values at each time point were obtained from wells in triplicate.” left out
as §5

[7] = tested on: MCF-7 cells; assay: Fura-2 calcium imaging, MCF-7 cells; format: cell-based, human; conditions: 10 μM
Protocol: as §1
as §2, with “Free fura emits maximally when excited at 380 nm, whilst the calcium bound fura has a maximal emission when excited at 340 nm. Thus the ratio of emission when alternately excited at 340/380 nm is a measure of the calcium concentration in equilibrium with the chelator.” left out

[8] = tested on: PKB/Akt; assay: PKB immunoprecipitation activity assay in MDA MB 468 cells; format: cell-based, human
Protocol: All cells received 1% DMSOvehiclefor the duration of stimulation. […] Data pointsshown are the mean PKB activity relative to vehicle treated cells from three independently treated dishes of cells with error barsindicating the standard deviation. As controls, cells were treatedwith the PI 3-kinase inhibitor wortmannin for 30 minutes orstimulated with serum for 5 minutes; and
MDA MB 468 cells were exposed to the sigma antagonist IPAG at 100 μM and 10 μM concentrations for periods of time up to 4 hours. At intervals, cells were lysed and then subjected to PKB immunoprecipitation, precisely as has been described previously (Leslie et al., 2001, Biochemical Journal, Vol 357 p427). This method, which is recognised in the art, provides a quantitative measure of PKB activity. FIG. 5c depicts a concentration- and time-dependent decline in PKB activity when cells were exposed to IPAG.

[9] = 1-10 μM, microvascular endothelial cells

N=C(Nc1ccc(I)cc1)NC1C2CC3CC(C2)CC1C3 (stereo not shown) [IPAG, 1-(4-iodophenyl)-3-(2-adamantyl)guanidine]
% increase of cytosolic calcium (peak 340/380 nm fura-2 ratio) ([1]; 1 μM, microvascular endothelial cells): 119±13%
initial calcium rise above baseline, occurring within 1 minute ([1]; 10 μM, 1 mM, 0.1 mM and nominally calcium free medium): > 100%
% increase of cytosolic calcium (peak 340/380 nm fura-2 ratio) ([1]; 10 μM, microvascular endothelial cells): 293±14%
time to evident increase of cytosolic calcium after drug application [1, 9]: 5 to 10 s
time to peak effect on cytosolic calcium [1, 9]: ≤ 3 min
% increase of cytosolic calcium (peak 340/380 nm fura-2 ratio) ([2]; 1 μM): 10±5%
% increase of cytosolic calcium (peak 340/380 nm fura-2 ratio) ([2]; 10 μM): 25±5%
relocalisation of GFP-PH PLC delta 1 from membrane to cytosol ([3]; 100 μM, approximately 10 minutes, DMEM with 10% fetal bovine serum): pronounced relocalisation
localisation of GFP-PH PLC delta 1 ([3]; nominally calcium-free buffer (0 mM calcium)): remained membrane-localised
Ki [4]: ~2.8 nM
viable cell number less than control values [5]: 20-30%
Cytotoxicity [6]: not cytotoxic
time by which calcium levels have returned to baseline [7]: ≤ 30 min
time to peak effect on cytosolic calcium [7]: ≤ 5 min
PKB activity ([8]; 10 μM, up to 4 hours): later decline in PKB activity
PKB activity ([8]; 100 μM, within 5 minutes, sustained to at least 30 minutes): profoundly inhibited PKB activity
